Experimental data as given in patent US7033999B2, “Nitrosated and nitrosylated heme proteins” (Brigham and Women's Hospital, priority 1991, dated 2006).

Legend:
gel-filtered platelets [1] = test: Intracellular platelet cyclic GMP (radioimmunoassay); format: cell-based, human
Procedure: (§1) Venous blood, anticoagulated with 1-mM trisodium citrate, was obtained from volunteers who had not consumed acetylsalicylic acid for at least ten days. Platelet-rich plasma (PRP) was prepared by centrifugation at 150 g for ten minutes at 25° C. Platelet counts were determined with a Coulter counter (model ZM; Coulter Electronics, Hialeah, Fla.).
(§2) Platelets were gel-filtered on a 4× 10 cm column of Sepharose 2B in Tyrode's Hepes buffer as described previously (Hawiger et al., Nature 2831:195–198 (1980), herein incorporated by reference). Platelets were typically suspended at a concentration of 1.5×10^8/ml and were used within 30 minutes of preparation. Platelet aggregation was monitored using a standard nephelometric technique (Born, et al., J. Physiol. 168:178–195 (1963), herein incorporated by reference), in which 0.3-ml aliquots of gel-filtered platelets were incubated at 37° C. and stirred at 1000 rpm in a PAP-4 aggregometer (Biodata, Hatboro, Pa.). Gel-filtered platelets were preincubated with t-PA or S—NO-t-PA for up to 45 minutes and aggregations induced with 5 μM ADP or 0.025 U/ml thrombin.
The antiplatelet actions of S-nitrosothiols are mediated by cyclic GMP. Measurements of cGMP were performed by radioimmunoassay. Gel-filtered platelets were pre-incubated for 180 seconds with S—NO-t-PA (9 μM), and related controls. […]

gel-filtered platelets [2] = test: Platelet aggregation (nephelometric aggregometry); format: cell-based, human; conditions: 5 μM ADP
Procedure: as §1, §2
Aggregations were quantified by measuring the maximal rate or extent of light transmittance and expressed as a normalized value relative to control aggregations.
The effect of S-nitroso-BSA on platelet aggregation was studied, using a gel-filtered platelet preparation, as previously described (Hawiger et al., Nature 2831:195 (1980)) and suspended at 150,000 platelets/ul in HEPES buffer, pH 7.35. S—NO-BSA was incubated with platelets for ten minutes at 37° C. in a PAP-4 aggregometer (BioData, Hatboro, Pa.), after which aggregations were induced with 5 μM ADP. Aggregations were quantified by measuring the extent of change of light transmittance and expressed as a normalized value relative to control aggregations.

S—NO-t-PA: derived from the nitrosylation of tissue-type plasminogen activator (t-PA)
increase in intracellular cyclic GMP above basal levels (gel-filtered platelets [1]; 9 μM, 180 seconds, basal in the presence of t-PA): 85% | elevation in platelet cGMP after preincubation with methylene blue (gel-filtered platelets [1]; methylene blue 10 μM for ten minutes): entirely prevented | effect on platelet aggregation, synthesized with authentic EDRF (gel-filtered platelets [2]; 333 nM, preincubated ten minutes): inhibition of platelet aggregation | inhibition in rate and extent of aggregation (gel-filtered platelets [2]; 1.4 μM, mean ±S.D., n=4): 50±16%
